Data reported in patent US20060141546A1, “Bacterial test method by glycated label binding” (priority 2002, published 2006).

Assays:
[1] = buffers for ALP determinations; cited from earlier work
[2] = system: bacteria (Sf—Staph. faec.; Ec: E. coli); assay: Effect of various cations on ALP binding to bacteria (Example 8, FIGS. 13-14); conditions: FIG. 13; for effect of various cations on ALP-binding (in words): cations 2 mM, bovine intestinal mucosa ALP
Protocol: (§1) Bacterial cells (1 to 4.5×10^7 cells/mL) were washed twice with water after centrifugation to separate cells into a packed pellet from the supernatant liquid. The washed cells in pellet form were suspended in 20 μL of EPPS buffer (50 mM at pH 8.0) and 30 μL of water. […]
(§2) The mixture of glycated protein and bacterial cells was left at 25° C. for 15 minutes. The mixture was then centrifuged at 30,000 rpm for 30 minutes after which the bacterial cells formed a pellet at the bottom of the tube and was washed with water 4-5 times (50 μL). Centrifugation allows separation of glycoprotein bound to the bacteria cells from unbound glycated protein(s).
(§3) After washing, the bacterial pellets were suspended in 50 μL of borate buffer (25 mM at pH 9.0). A 5 μL aliquot of the suspension was assayed for detection of ALP binding by adding 5 μL of para-nitrophenol phosphate (PNPP, 100 mM), 50 μL sodium borate buffer (25 mM at pH 9.0) and 140 μL of water. […] The color was read at 405 nm using an ELISA plate reader between 15-30 min; the absorbance is directly proportional to the amount of ALP bound to the bacteria cell.

E. coli [3] = assay: ALP binding to bacteria in presence of carbohydrates, polysaccharides, glycopeptides and lectins (Example 5, Table 3); conditions: ALP 100 mUnits plus 15 μg of additive
Protocol: (§4) Bacterial cells (1 to 4.5×10^7 cells/mL) were washed twice with water after centrifugation to separate cells into a packed pellet from the supernatant liquid. The washed cells in pellet form were suspended in 20 μl of EPPS buffer (50 mM at pH 8.0) and 30 μL of water. Hemoglobin (20 μg) was added as a blocking additive. Alkaline phosphatase (ALP) (100 mUnits) from bovine intestine and 15 μg of simple carbohydrates or proteoglycan or lectins, were added.
as §2, with “and were” for “and was”
(§5) After washing, the bacterial pellets were suspended in 50 μL of sodium tetraborate buffer (25 mM at pH 9.5). A 5 uL aliquot of the suspension was assayed for detection of ALP binding by adding 5 μL of para-nitrophenol phosphate (PNPP, 100 mM), 50 μL sodium borate buffer (25 mM at pH 9.0) and 140 μL of water. […] The color is read at 405 nm using a ELISA plate reader between 15-30 min and the absorbance is directly proportional to the amount of ALP bound to the bacteria cell adhesions for glycated groups.

S. faec. [4] = assay: as above; conditions: ALP 100 mUnits plus 15 μg of additive
Protocol: as §4
as §2, with “and were” for “and was”
as §5

bacteria [5] = assay: ALP binding to bacteria in presence of carbohydrates, polysaccharides, glycopeptides and lectins (Example 5); conditions: 15 μg additive with ALP
Protocol: as §4
as §2, with “and were” for “and was”
as §5

bacteria [6] = assay: Effect of divalent cations on ALP binding to bacteria (Example 7, Table 5, FIG. 12)
Protocol: as §1
as §2, with “and were” for “and was”
as §3

S. faecalis strain = assay: Zinc concentration dependent ALP binding (Example 7, FIG. 11); conditions: increasing concentration of zinc
Protocol: Bacterial cells (1 to 4.5×10^7 cells/mL) were washed twice with water after centrifugation to separate cells into a packed pellet from the supernatant liquid. The washed cells in pellet form were suspended in 20 μL of EPPS buffer (50 mM at pH 8.0) and 30 μL of water. Bovine intestinal alkaline phosphatase (ALP) (2 μg or […]) was added and 0.2 mM of several cations.
as §2, with “and were” for “and was”
After washing, the bacterial pellets were suspended in 50 μL of borate buffer (25 mM at pH 9.0). […] The color was read at 405 nm using an ELISA plate reader between 15-30 min; the absorbance is directly proportional to the amount of ALP bound to the bacteria cell.
Concentration dependent binding study has been performed in the presence of increasing concentration of zinc with S. faecalis strain as shown in FIG. 11. […] The studies have been continued with different strains of bacteria in the presence of 1 mM Zn^2+ and the ALP binding could be monitored even at 10^5 bacteria concentration (FIG. 12).

[7] = system: bacteria (both Staph and E. coli); assay: Cation effect on ALP binding, bound ALP assayed in glycine buffer pH 10.0 (Example 9, FIGS. 17-18); conditions: binding at pH 8.0 in EPPS buffer, assay in glycine buffer pH 10.0, FIGS. 17-18
Protocol: The binding was conducted at pH 8.0 in EPPS buffer.

bacteria [8] = assay: Bacteria assay by binding of ALP iso-forms (Example 4, FIG. 10); conditions: for binding of ALP iso-forms to bacteria: 100 mUnits ALP, hemoglobin blocking
Protocol: as §4, with “μL” for “μl”, “intestine, placenta,” for “bovine intestine”, “bacteria sources” for “15 μg of simple carbohydrates or proteoglycan or lectins,”
as §2, with “and were” for “and was”
as §5, with “in 50 μl of sodium” for “in 50 μL of sodium”, “A 5 μL aliquot of” for “A 5 uL aliquot of”, “nm using an ELISA plate” for “nm using a ELISA plate”, “to the bacteria-cell adhesions for” for “to the bacteria cell adhesions for”, “glycated groups. The results are illustrated in FIG. 10.” for “glycated groups.”

E. coli [9] = assay: Competitive inhibition of ALP binding to bacteria by added protein (Example 3, Table 2); conditions: protein 2-40 μg added with ALP 2 μg
Protocol: (§6) Less than 20% was no inhibition (NI) and greater than 90% was complete inhibition (CI) with a binding constant great than ALP.
(§7) Bacterial cells (1 to 4.5×10^7 cells/mL) were washed twice with water after centrifugation to separate cells into a packed pellet from the supernatant liquid. The washed cells in pellet form were suspended in 20 ul of N-2-hydroxyethyl piperazine-N′-[3-propane sulfonic acid] EPPS buffer (50 mM at pH 8.0) and 30 μL of water. Glycated protein(s) (2-40 μg) were added. In some cases a glycated protein (2-40 μg) and bovine intestinal alkaline phosphatase (ALP) (2 μg or […]) were added and the binding of the glycated protein measured by the reduction of binding of ALP.
as §2, with “and were” for “and was”
as §5, with “borate” for “sodium tetraborate”, “9.0).” for “9.5).”, “μL” for “uL”, “min. The” for “min and the”
(§8) Only a protein binding to the cell adhesions for glycated groups causes the inhibition of the binding of ALP by bacteria. A protein binding to the cell adhesions for glycated groups provides a positive number in Table 2.

S. faec. [10] = assay: as above; conditions: protein 2-40 μg added with ALP 2 μg
Protocol: as §6, §7
as §2, with “and were” for “and was”
as §5, with “borate” for “sodium tetraborate”, “9.0).” for “9.5).”, “μL” for “uL”, “min. The” for “min and the”
as §8

bacteria [11] = assay: Competitive inhibition of ALP binding to bacteria (Example 3); conditions: for binding to bacteria compared with ALP: from complete inhibition of ALP binding
Protocol: as §6, §7
as §2, with “and were” for “and was”
as §5, with “borate” for “sodium tetraborate”, “9.0).” for “9.5).”, “μL” for “uL”, “min. The” for “min and the”
as §8

[12] = ALP activity of different sources in glycine buffer (Example 9, FIGS. 15-16); format: biochemical; conditions: assayed in glycine buffer

Molecule: CC(N)(CO)CO [2-amino-2-methyl-1,3-propanediol]
- pKa [1]: 8.6

Molecule: CC(C)(N)CO [2-amino-2-methyl-1-propanol]
- pKa [1]: 9.3

Molecule: [Co+2] [Co^+2]
- effect of various cations on ALP-binding (in words) [2]: stimulate ALP-binding

Molecule: [Cu+2] [Cu^2+]
- effect of various cations on ALP-binding (in words) [2]: stimulate ALP-binding

Molecule: O=C(O)CN(CCN(CC(=O)O)CC(=O)O)CC(=O)O [EDTA, reference compound]
- ALP activity in the presence of EDTA ([2]; EDTA 10 mM): total inhibition

Molecule: [Fe+2] [Fe^2+]
- effect of various cations on ALP-binding (in words) [2]: stimulate ALP-binding

Molecule: OC[C@H]1O[C@@H](O)[C@H](O)[C@@H](O)[C@@H]1O [Glucose, β-D-Glucose]
- absorbance (405 nm) of ALP bound to bacteria (E. coli [3]): 1.8
- absorbance (405 nm) of ALP bound to bacteria (S. faec. [4]): 2.4
- effect on bacteria binding of ALP (in words) (bacteria [5]): did not produce any effect

Molecule: [Cl-].[Cl-].[Zn+2] [ZnCl2]
- effect of cation on binding of ALP to the bacteria (in words) (bacteria [6]; 0.2 mM): significantly higher binding of ALP
- O.D. at 405 nm, With ALP (bacteria [6]; bacteria plus cation (CaCl2 1 mM, MgCl2 1 mM, ZnCl2 0.2 mM) with ALP): 0.53 O.D.
- O.D. at 405 nm, No ALP (bacteria [6]; bacteria plus cation (CaCl2 1 mM, MgCl2 1 mM, ZnCl2 0.2 mM), no ALP): 0.23 O.D.
- zinc concentration at which optimum binding occurs (S. faecalis strain): 1 mM
- effect of various cations on ALP-binding (in words) [2]: stimulate ALP-binding
- cation effectiveness for binding of ALP to the bacteria [7]: best metal

Molecule: CCC1(CC)C(=O)NC(=O)NC1=O [barbital]
- pKa [1]: 7.44

Molecule: OCCNCCO [diethanolamine]
- pKa [1]: 8.7

Molecule: Lipopolysaccharide
- absorbance (405 nm) of ALP bound to bacteria (E. coli [3]): 1.8
- absorbance (405 nm) of ALP bound to bacteria (S. faec. [4]): 2.0
- effect on bacteria binding of ALP (in words) (bacteria [5]): without any effect

Molecule: Lipoteichoic acid
- absorbance (405 nm) of ALP bound to bacteria (E. coli [3]): 0.2
- absorbance (405 nm) of ALP bound to bacteria (S. faec. [4]): 0.2
- effect on bacteria binding of ALP (in words) (bacteria [5]): strongly inhibits

Molecule: bacterial ALP: Alkaline phosphatase from bacteria sources; lacks glycophospholipid
- binding of ALP iso-forms to bacteria (bacteria [8]): binds bacteria

B1: Uristatin: urinary trypsin inhibitor lacking the O-linked glycoconjugate chain (protein, UniProt P02760 206-352, looked up)
Inter-alpha-trypsin inhibitor …: AVLPQEEEGSGGGQLVTEVTKKEDSCQLGYSAGPCMGMTSRYFYNGTSMACETFQYGGCMGNGNNFVTEKECLQTCRTVAACNLPIVRGPCRAFIQLWAFDAVKGKCVLFPYGGCQGNGNKFYSEKECREYCGVPGDGDEELLRFSN
modifications: Inter-alpha-trypsin inhibitor light chain lacks O-linked glycan chain
- inhibition of the binding of ALP by bacteria (E. coli [9]): >90%
- inhibition of the binding of ALP by bacteria (S. faec. [10]): >90%
- effect of fragmentation of the peptide chain on inhibition of ALP binding (bacteria [11]; fragmentation with protease): did not impact the inhibition
- binding to bacteria compared with ALP (bacteria [11]): better binders than ALP

B2: Bikunin: urinary trypsin inhibitor with two glycoconjugate chains and two Kunitz inhibitor domains (protein, UniProt P02760 206-352, looked up)
Inter-alpha-trypsin inhibitor …: B1 Inter-alpha-trypsin inhibitor …
modifications: Inter-alpha-trypsin inhibitor light chain
- inhibition of the binding of ALP by bacteria (E. coli [9]): >90%
- inhibition of the binding of ALP by bacteria (S. faec. [10]): >90%
- binding to bacteria compared with ALP (bacteria [11]): better binders than ALP

B3: Myoglobin: non-glycated protein as received from suppliers (protein, UniProt P02144 2-154, looked up)
Myoglobin: GLSDGEWQLVLNVWGKVEADIPGHGQEVLIRLFKGHPETLEKFDKFKHLKSEDEMKASEDLKKHGATVLTALGGILKKKGHHEAEIKPLAQSHATKHKIPVKYLEFISECIIQVLQSKHPGDFGADAQGAMNKALELFRKDMASNYKELGFQG
- inhibition of the binding of ALP by bacteria (E. coli [9]): <20%
- inhibition of the binding of ALP by bacteria (S. faec. [10]): <20%
- inhibition of the binding of ALP by bacteria (in words) (bacteria [11]): did not inhibit the binding of ALP

B4: placenta ALP: Alkaline phosphatase from placenta (protein, UniProt P05187 23-506, looked up)
Alkaline phosphatase, …: IIPVEEENPDFWNREAAEALGAAKKLQPAQTAAKNLIIFLGDGMGVSTVTAARILKGQKKDKLGPEIPLAMDRFPYVALSKTYNVDKHVPDSGATATAYLCGVKGNFQTIGLSAAARFNQCNTTRGNEVISVMNRAKKAGKSVGVVTTTRVQHASPAGTYAHTVNRNWYSDADVPASARQEGCQDIATQLISNMDIDVILGGGRKYMFRMGTPDPEYPDDYSQGGTRLDGKNLVQEWLAKRQGARYVWNRTELMQASLDPSVTHLMGLFEPGDMKYEIHRDSTLDPSLMEMTEAALRLLSRNPRGFFLFVEGGRIDHGHHESRAYRALTETIMFDDAIERAGQLTSEEDTLSLVTADHSHVFSFGGYPLRGSSIFGLAPGKARDRKAYTVLLYGNGPGYVLKDGARPDVTESESGSPEYRQQSAVPLDEETHAGEDVAVFARGPQAHLVHGVQEQTFIAHVMAFAACLEPYTACDLAPPAGTTD
- binding of ALP iso-forms to bacteria (bacteria [8]): lowest binding to bacteria
- enzyme activity of ALP iso-forms (bacteria [8]; PNPP): lowest enzyme activity
- ALP activity compared with other sources [12]: comparable to ALP from other sources
